“And” between values parts separate entries of the source, which are not always exact repeats. Equal entries are not always repeated. Results filed as inconclusive are left out. The source made the active and inactive calls.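 Rule for the calls: active = fitted dose curve reaches a 40% decrease at a concentration up to twice the top valid dose; inconclusive = flat curve showing 30 to 70% expression rise, or poor fit; inactive = the rest.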

Tested on in the first assay: not listed separately
The assay is described as follows: TRPM1 transcript decrease in melanoma cells – cell-based, SK-MEL-5, RT-qPCR, dry powder samples, orthogonal assay for MITF inhibitor project, dose response (AID 651770). Particulars: SK-MEL-5, TRPM1 mRNA qPCR (delta-delta-Ct), overnight; at 35 µM (top of the series).
As to `COc1ccc(NC2=C(N3CCCCC3)C(=O)c3ccccc3C2=O)cc1`, the TRPM1 expression decrease is 78% (inactive).

In the next assay the test system is SK-MEL-5, TRPM1 mRNA qPCR (delta-delta-Ct), overnight. The assay is described as above.
Conditions: not given
Turning to `COC1=C(Nc2ccccc2)C(=O)c2ccccc2C1=O`, the AC40 is 336 nM.
Still for that read-out and setting: with `O=C1C(Nc2ccc(Cl)cc2)=C(N2CCCC2)C(=O)c2ccccc21` the figure was 10300 nM.
On the same count and under the same terms, next, `COC1=C(NS(=O)(=O)c2ccc(Br)cc2)C(=O)c2ccccc2C1=O`: 4440 nM; `O=C1C=C(NS(=O)(=O)c2ccc(Br)cc2)C(=O)c2ccccc21`: 850 nM; `C=CCNC1=C(Cl)C(=O)c2ccccc2C1=O`: 943 nM.
The same measure, in the same setting: next, `CN1CCN(C2=C(Nc3ccc(F)cc3F)C(=O)c3ccccc3C2=O)CC1`: 1150 nM; `CN1CCN(C2=C(NS(=O)(=O)c3ccc(Br)s3)C(=O)c3ccccc3C2=O)CC1`: 1130 nM.
Take `NS(=O)(=O)c1ccc(NC2=CC(=O)c3ccccc3C2=O)cc1`: the AC40 was 163 nM.
On the same count and under the same terms, next, `COC1=C(NS(=O)(=O)c2ccccc2)C(=O)c2ccccc2C1=O`: 3980 nM; `CCN1CCN(C2=C(NC(=O)c3ccccc3)C(=O)c3ccccc3C2=O)CC1`: 1160 nM; `O=C1C(NS(=O)(=O)c2cccs2)=C(c2ccccc2)C(=O)c2ccccc21`: 1680 nM.
On the same count and under the same terms, next, `O=C1C=C(Nc2ccc([N+](=O)[O-])c(C(F)(F)F)c2)C(=O)c2ccccc21`: 302 nM; `COC1=C(NS(=O)(=O)c2cccs2)C(=O)c2ccccc2C1=O`: 4390 nM; `NC1=CC(=O)c2ccccc2C1=O`: 3410 nM.
Same read-out and setting: next, `O=C1C=C(NS(=O)(=O)c2cccs2)C(=O)c2ccccc21`: 333 nM.
Regarding `CCN1CCN(C2=C(Nc3ccc(F)cc3F)C(=O)c3ccccc3C2=O)CC1`, the AC40 was 3190 nM.
The same measure, in the same setting: next, `O=C1C=C(Nc2ccccc2)C(=O)c2ccccc21`: 740 nM and 323 nM; `CCN1CCN(C2=C(NS(=O)(=O)c3ccc(Br)cc3)C(=O)c3ccccc3C2=O)CC1`: 4930 nM.
On the same count and under the same terms, next, `NC1=C(NS(=O)(=O)c2ccc(Br)s2)C(=O)c2ccccc2C1=O`: 5240 nM; `NC1=C(NS(=O)(=O)c2ccc(Br)cc2)C(=O)c2ccccc2C1=O`: 4090 nM.
Still for that read-out and setting: next, `CC(C)N1CCN(C2=C(Nc3ccc(F)cc3)C(=O)c3ccccc3C2=O)CC1`: 4910 nM; `CC(C)N1CCN(C2=C(Nc3ccc(F)cc3F)C(=O)c3ccccc3C2=O)CC1`: 2020 nM; `NC1=C(NS(=O)(=O)c2ccccc2)C(=O)c2ccccc2C1=O`: 1850 nM.
Regarding `O=C(NC1=C(Cl)C(=O)c2ccccc2C1=O)c1ccccc1`, the AC40 is 164 nM.
The same measure, in the same setting: with `NC1=C(NS(=O)(=O)c2cccs2)C(=O)c2ccccc2C1=O` the figure was 987 nM.
Still for that read-out and setting: with `O=C1C(Nc2ccccc2)=C(c2ccccc2)C(=O)c2ccccc21` the figure was 8180 nM; with `NC1=C(NC(=O)c2ccccc2)C(=O)c2ccccc2C1=O`, 722 nM; with `O=C1C=C(NS(=O)(=O)c2ccccc2)C(=O)c2ccccc21`, 193 nM.

Source of the values: PubChem BioAssay AID651770 (Broad Institute, 2012).
